Assay results taken from ChEMBL document CHEMBL3867474, “Discovery of novel pyrrolidineoxy-substituted heteroaromatics as potent and selective PI3K delta inhibitors with improved physicochemical properties” (Bioorg Med Chem Lett, 2016).
pIC50: −log10 of the molar value. Values after ≈ are worked out from the molar mass of the structure shown.

Experiments:
[1] = biological target: T1, Phosphatidylinositol 4,5-bisphosphate 3-kinase catalytic subunit alpha isoform (Homo sapiens, UniProt P42336); experiment: Inhibition of PI3K-alpha (unknown origin) by KinaseGlo assay
T1 sequence (P42336 whole entry, canonical isoform): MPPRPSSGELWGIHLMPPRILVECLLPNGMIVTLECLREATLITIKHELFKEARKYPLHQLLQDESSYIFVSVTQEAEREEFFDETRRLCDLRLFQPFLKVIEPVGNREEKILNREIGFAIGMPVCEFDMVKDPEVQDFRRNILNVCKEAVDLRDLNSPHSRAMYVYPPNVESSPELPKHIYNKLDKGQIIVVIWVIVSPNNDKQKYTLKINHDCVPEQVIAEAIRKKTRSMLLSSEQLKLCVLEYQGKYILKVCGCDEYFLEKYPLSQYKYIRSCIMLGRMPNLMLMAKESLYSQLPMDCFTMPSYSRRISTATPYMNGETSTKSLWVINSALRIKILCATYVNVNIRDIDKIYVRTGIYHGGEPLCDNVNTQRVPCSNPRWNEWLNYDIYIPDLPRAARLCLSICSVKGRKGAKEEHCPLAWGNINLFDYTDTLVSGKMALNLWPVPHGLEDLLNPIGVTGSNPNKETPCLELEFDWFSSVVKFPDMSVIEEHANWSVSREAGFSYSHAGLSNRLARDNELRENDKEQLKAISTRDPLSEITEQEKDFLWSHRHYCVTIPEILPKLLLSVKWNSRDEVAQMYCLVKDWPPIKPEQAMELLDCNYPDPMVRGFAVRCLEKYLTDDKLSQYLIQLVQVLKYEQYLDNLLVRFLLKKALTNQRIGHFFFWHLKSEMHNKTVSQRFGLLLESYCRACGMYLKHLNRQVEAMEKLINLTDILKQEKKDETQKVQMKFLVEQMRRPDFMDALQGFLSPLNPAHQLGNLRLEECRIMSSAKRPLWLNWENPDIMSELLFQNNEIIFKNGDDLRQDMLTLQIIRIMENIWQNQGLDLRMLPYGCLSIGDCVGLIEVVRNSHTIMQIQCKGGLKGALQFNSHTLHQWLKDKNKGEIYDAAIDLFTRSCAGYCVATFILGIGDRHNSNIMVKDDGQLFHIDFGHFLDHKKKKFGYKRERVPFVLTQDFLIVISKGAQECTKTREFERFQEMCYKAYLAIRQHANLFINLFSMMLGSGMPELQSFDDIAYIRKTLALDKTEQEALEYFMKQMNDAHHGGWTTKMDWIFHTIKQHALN

[2] = biological target: T2, Phosphatidylinositol 4,5-bisphosphate 3-kinase catalytic subunit delta isoform (Homo sapiens) (UniProt O00329); experiment: Selectivity ratio of IC50 for myristoylated PI3K-delta (unknown origin) overexpressed in Rat1 cells to IC50 for PI3K-delta (unknown origin); assay type: cell-based
T2 sequence (whole entry): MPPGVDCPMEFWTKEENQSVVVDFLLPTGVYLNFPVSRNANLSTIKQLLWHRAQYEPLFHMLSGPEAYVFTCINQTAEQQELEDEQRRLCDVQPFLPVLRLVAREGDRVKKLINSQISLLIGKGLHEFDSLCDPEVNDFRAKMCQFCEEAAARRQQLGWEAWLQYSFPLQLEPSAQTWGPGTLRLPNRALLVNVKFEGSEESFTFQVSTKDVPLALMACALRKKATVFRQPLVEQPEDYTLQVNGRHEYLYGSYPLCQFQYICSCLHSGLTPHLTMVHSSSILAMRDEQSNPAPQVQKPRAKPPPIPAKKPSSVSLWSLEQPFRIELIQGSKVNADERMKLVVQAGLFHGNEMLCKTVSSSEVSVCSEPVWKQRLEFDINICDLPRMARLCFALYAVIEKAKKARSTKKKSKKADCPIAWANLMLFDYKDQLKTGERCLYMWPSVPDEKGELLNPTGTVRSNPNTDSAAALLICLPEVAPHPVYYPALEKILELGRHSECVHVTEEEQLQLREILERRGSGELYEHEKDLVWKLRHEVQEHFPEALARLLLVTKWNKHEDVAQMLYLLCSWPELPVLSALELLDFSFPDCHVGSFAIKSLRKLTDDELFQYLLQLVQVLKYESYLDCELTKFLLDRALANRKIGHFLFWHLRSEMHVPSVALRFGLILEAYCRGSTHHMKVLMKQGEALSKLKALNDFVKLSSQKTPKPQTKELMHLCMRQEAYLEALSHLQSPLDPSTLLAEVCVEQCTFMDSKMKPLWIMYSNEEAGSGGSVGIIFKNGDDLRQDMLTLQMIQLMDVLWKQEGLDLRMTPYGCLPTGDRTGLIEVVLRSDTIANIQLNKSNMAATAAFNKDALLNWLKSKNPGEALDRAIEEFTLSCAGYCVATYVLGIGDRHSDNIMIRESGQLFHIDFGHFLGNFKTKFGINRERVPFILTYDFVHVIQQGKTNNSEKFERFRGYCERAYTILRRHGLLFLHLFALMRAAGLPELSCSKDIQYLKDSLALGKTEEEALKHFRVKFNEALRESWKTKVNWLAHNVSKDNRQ

[3] = biological target: T3, Phosphatidylinositol 4,5-bisphosphate 3-kinase catalytic subunit beta isoform (Homo sapiens, UniProt P42338); experiment: Inhibition of myristoylated PI3K-beta (unknown origin) overexpressed in Rat1 cells assessed as inhibition of Akt phosphorylation; assay type: cell-based
T3 sequence (P42338 whole entry, canonical isoform): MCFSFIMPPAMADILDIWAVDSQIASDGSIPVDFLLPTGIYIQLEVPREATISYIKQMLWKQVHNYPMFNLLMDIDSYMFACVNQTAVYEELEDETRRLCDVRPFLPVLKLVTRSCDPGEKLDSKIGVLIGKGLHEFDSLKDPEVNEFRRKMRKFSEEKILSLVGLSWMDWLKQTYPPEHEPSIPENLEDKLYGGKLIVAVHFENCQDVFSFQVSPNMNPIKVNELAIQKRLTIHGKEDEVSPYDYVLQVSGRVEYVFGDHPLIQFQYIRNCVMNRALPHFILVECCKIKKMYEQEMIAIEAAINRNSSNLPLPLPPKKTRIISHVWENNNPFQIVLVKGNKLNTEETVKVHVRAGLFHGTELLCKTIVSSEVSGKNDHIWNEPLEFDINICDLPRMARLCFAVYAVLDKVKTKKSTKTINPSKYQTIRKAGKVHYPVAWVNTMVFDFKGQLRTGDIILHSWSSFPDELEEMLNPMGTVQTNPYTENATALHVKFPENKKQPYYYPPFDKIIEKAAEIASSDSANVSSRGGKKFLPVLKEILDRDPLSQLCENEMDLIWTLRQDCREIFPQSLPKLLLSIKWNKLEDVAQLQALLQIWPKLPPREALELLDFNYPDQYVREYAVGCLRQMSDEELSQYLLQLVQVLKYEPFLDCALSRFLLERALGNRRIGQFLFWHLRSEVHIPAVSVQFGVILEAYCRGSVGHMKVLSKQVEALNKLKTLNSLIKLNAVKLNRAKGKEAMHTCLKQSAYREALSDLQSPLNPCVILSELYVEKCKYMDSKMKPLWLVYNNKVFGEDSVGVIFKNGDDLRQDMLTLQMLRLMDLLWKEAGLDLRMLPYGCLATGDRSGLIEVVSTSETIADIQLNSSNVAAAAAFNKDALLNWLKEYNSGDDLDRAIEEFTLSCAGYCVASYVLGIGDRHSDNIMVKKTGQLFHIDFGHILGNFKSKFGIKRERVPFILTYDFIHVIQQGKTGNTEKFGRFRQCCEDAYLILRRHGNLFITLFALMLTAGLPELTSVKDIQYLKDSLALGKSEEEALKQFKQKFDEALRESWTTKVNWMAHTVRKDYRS

[4] = biological target: T4, Phosphatidylinositol 4,5-bisphosphate 3-kinase catalytic subunit delta isoform (Homo sapiens, UniProt O00329); experiment: Inhibition of myristoylated PI3K-delta (unknown origin) overexpressed in Rat1 cells assessed as inhibition of Akt phosphorylation; assay type: cell-based
T4 sequence (O00329 whole entry): T2 sequence (whole entry)

[5] = Lipophilicity, log P of the compound by high-throughput assay; assay type: physicochemical; conditions: octanol/water
[6] = biological target: Phosphatidylinositol 4,5-bisphosphate 3-kinase catalytic subunit gamma isoform (Homo sapiens, UniProt P48736); experiment: Inhibition of PI3K-gamma (unknown origin) by KinaseGlo assay
Chain of Phosphatidylinositol 4,5-bisphosphate 3-kinase catalytic subunit gamma isoform (P48736 whole entry, canonical isoform): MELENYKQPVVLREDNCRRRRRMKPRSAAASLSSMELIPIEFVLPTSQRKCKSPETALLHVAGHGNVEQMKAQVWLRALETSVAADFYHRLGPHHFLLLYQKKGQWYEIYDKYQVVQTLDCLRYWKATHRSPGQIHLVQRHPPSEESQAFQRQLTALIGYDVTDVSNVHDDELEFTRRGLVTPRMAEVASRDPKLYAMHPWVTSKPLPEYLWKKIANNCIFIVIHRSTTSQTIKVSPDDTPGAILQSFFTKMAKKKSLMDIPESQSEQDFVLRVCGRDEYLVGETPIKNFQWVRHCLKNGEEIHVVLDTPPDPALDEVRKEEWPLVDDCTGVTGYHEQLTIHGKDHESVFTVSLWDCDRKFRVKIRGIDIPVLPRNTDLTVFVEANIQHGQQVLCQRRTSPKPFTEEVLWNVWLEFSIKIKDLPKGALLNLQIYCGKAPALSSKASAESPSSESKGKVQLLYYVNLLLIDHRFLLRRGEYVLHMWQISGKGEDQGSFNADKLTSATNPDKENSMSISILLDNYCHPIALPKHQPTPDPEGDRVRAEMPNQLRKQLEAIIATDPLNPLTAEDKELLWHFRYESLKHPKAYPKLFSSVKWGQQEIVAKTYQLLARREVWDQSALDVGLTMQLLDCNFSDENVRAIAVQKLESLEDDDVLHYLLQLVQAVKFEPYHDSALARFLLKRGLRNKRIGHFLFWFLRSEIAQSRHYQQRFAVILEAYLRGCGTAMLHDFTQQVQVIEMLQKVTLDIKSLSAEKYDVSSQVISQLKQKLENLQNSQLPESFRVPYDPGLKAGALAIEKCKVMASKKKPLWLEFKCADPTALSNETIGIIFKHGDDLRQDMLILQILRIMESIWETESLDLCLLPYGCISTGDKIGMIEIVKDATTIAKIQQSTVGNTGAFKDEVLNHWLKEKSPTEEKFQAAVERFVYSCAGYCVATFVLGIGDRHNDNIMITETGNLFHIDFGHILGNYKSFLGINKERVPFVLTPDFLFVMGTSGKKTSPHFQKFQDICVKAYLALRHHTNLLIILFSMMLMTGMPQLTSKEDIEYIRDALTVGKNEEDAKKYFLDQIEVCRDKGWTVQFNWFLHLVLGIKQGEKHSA

[7] = biological target: T4, Phosphatidylinositol 4,5-bisphosphate 3-kinase catalytic subunit delta isoform; experiment: Inhibition of PI3K-delta (unknown origin) by KinaseGlo assay
[8] = Solubility of the compound at pH 6.8 by high-throughput equilibrium analysis; assay type: physicochemical; conditions: buffer
[9] = biological target: T3, Phosphatidylinositol 4,5-bisphosphate 3-kinase catalytic subunit beta isoform; experiment: Inhibition of PI3K-beta (unknown origin) by KinaseGlo assay
[10] = biological target: T1, Phosphatidylinositol 4,5-bisphosphate 3-kinase catalytic subunit alpha isoform; experiment: Inhibition of myristoylated PI3K-alpha (unknown origin) overexpressed in Rat1 cells assessed as inhibition of Akt phosphorylation; assay type: cell-based
[11] = Inhibition of PI3K-delta in rat whole blood assessed as inhibition of anti-IgM/IL4 induced CD86 expression; assay type: tissue-based
[12] = test system: Rat1; experiment: Selectivity ratio of IC50 for PI3K-delta in rat whole blood to IC50 for myristoylated PI3K-delta (unknown origin) overexpressed in Rat1 cells; assay type: cell-based
[13] = biological target: T5, Phosphatidylinositol 4,5-bisphosphate 3-kinase catalytic subunit delta isoform (Mus musculus, UniProt O35904); experiment: Inhibition of PI3K-delta in mouse splenocytes assessed as inhibition anti-IgM induced CD86 expression; assay type: cell-based
T5 sequence (O35904 whole entry): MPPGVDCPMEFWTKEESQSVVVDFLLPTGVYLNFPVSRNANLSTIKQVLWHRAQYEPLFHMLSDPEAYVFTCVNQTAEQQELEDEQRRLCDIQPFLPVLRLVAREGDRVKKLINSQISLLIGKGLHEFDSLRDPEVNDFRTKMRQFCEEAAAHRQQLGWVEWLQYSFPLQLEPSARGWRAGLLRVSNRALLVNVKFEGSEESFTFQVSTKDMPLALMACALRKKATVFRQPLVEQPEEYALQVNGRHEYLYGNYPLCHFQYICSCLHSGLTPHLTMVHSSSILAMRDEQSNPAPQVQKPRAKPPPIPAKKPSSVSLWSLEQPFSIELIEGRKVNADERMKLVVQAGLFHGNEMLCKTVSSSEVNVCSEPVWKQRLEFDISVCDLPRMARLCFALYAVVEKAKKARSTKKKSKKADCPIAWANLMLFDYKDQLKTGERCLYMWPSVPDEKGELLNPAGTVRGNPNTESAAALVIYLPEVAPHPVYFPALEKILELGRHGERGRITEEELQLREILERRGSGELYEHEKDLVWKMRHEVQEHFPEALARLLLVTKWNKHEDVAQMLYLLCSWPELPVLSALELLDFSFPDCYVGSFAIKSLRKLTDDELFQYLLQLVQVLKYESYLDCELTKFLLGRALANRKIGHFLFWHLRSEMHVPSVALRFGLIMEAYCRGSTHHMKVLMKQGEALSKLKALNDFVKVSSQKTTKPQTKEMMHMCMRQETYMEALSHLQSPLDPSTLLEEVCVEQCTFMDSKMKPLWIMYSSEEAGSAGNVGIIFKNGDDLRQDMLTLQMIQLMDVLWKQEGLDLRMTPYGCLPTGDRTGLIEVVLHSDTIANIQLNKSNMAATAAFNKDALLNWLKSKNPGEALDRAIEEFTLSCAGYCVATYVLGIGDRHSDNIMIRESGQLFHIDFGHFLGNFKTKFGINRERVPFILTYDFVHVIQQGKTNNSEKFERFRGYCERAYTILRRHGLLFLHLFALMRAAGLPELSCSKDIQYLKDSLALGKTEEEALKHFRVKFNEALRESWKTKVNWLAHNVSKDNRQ

SMILES	pIC50 [1]	Ratio IC50 [2]	pIC50 [3]	pIC50 [4]	logP [5]	pIC50 [6]	pIC50 [7]	solubility thermodynamic [8]	pIC50 [9]	pIC50 [10]	pIC50 [11]	Ratio IC50 [12]	pIC50 [13]
CCC(=O)N1CC[C@H](Oc2ncnc3ccc(-c4cnc(OC)c(C#N)c4)cc23)C1	6.41	16	5.89	7.10	2.6	6.01	8.30	10 µM (≈ 4.03 µg/mL)	6.44	5.86			
CCC(=O)N1CC[C@H](Oc2ccnc3ccc(-c4ccc(OC)nc4)nc23)C1	6.37	29	5.49	6.19	2.2	5.53	7.66	> 1000 µM	5.99	5.63			
CCC(=O)N1CC[C@H](Oc2ncnc3ccc(-c4ccc(OC)nc4)cc23)C1	6.66	3	5.75	7.55	2.8	6.16	8.05	> 1000 µM	6.17	5.99	6.53	11	7.09
CCC(=O)N1CC[C@H](Oc2ccnc3ccc(-c4ccc(OC)nc4)cc23)C1	6.66	15	6.06	6.79	3.4	6.08	7.96	> 1000 µM	6.18	6.22	6.42	2.3	6.81
CCC(=O)N1CC[C@H](Oc2cnnc3ccc(-c4ccc(OC)nc4)cc23)C1	5.29	13	< 5.00	5.55	2.8	< 5.04	6.73	370 µM (≈ 140 µg/mL)	5.05	< 5.00			
COc1ccc(-c2ccc3ncnc(O[C@H]4CCN(C(C)=O)C4)c3c2)cc1OC	6.90	5	6.39	7.09	2.6	6.71	7.80	> 1000 µM	6.52	6.68			
COc1ccc(-c2ccc3ncnc(O[C@@H]4CCN(C(=O)OC(C)(C)C)C4)c3c2)cc1OC	6.16				4.9	6.19	6.59	6 µM (≈ 2.71 µg/mL)	5.41				
COc1ccc(-c2ccc3ncnc(-c4cccc(C(=O)N5CCN(C(C)=O)CC5)c4)c3c2)cc1OC								610 µM (≈ 303 µg/mL)					
COc1ccc(-c2ccc3ncnc(O[C@@H]4CCN(C(C)=O)C4)c3c2)cc1OC	6.17				2.4	5.91	6.84	> 1000 µM	5.75				
COc1ccc(-c2ccc3ncnc(O[C@@H]4CCN(C)C4)c3c2)cc1OC	6.07				3.6	5.68	6.96	> 1000 µM	5.71				
CCC(=O)N1CC[C@H](Oc2cnc3ccc(-c4ccc(OC)c(OC)c4)cc3n2)C1	5.49				3.7	5.42	6.31	80 µM (≈ 32.6 µg/mL)	< 5.04				
COc1ccc(-c2ccc3ncnc(O[C@H]4CCN(C(=O)OC(C)(C)C)C4)c3c2)cc1OC	6.83	4	5.82	7.36	5.3	6.55	8.00	9 µM (≈ 4.06 µg/mL)	6.02	6.58			
CCC(=O)N1CC[C@@H](Oc2cnc3ccc(-c4ccc(OC)c(OC)c4)cc3n2)C1	6.31	5	5.67	7.14	3.8	6.44	7.82	40 µM (≈ 16.3 µg/mL)	6.07	5.73	6.55	4	7.07
COc1ccc(-c2ccc3ncnc(O[C@H]4CCN(C)C4)c3c2)cc1OC	6.05				3.6	5.92	6.89	> 1000 µM	5.83				
